# Assay results taken from paper PMC11959975 (Acta Pharmaceutica Sinica. B, 2025).
# Experiments:
# MCAO model of SD rats [1] = test: Rat model of acute ischemic stroke; assay type: in vivo; conditions: acute IS rats, 10 mg/kg
# [2] = tested on: permanent cerebral ischemic stroke in rats; test: Rat model of permanent ischemic stroke; assay type: in vivo, SD rats; conditions: permanent IS rats
# MCAO model of SD rats [3] = test: Rat model of chronic ischemic stroke; assay type: in vivo; conditions: chronic IS rats
# [4] = tested on: arteriovenous shunt thrombosis model in rats; test: Arteriovenous shunt thrombosis model in rats; assay type: in vivo; conditions: 10 mg/kg, i.v.
# mice = test: Bleeding time of tail clipping in mice; assay type: in vivo; conditions: 5 mg/kg
SMILES,reduction of cerebral infarction volume vs model group (MCAO model of SD rats [1]) [%],reduction of cerebral infarction volume vs model group ([2]; 10 mg/kg) [%],NSS value ([2]; day 1 after surgery),reduction of cerebral infarction volume (MCAO model of SD rats [3]; 5.0 mg/kg) [%],misstep frequency (grid test) (MCAO model of SD rats [3]; day 14 after modeling),inhibition (%) of dry thrombus [4] [%],inhibition (%) of wet thrombus [4] [%],Bleeding time (mice) [min]
"CCCCC1OC(=O)c2ccccc21 (stereo not drawn) [NBP, R,S-3-n-butylphthalide]",35,7,lower than that of the model group but without significant difference,32,significantly higher than that in the sham group,–,–,–
"CCCCC(O)c1ccccc1C(=O)[O-].[K+] (stereo not drawn) [PHPB, potassium 2-(1-hydroxypentyl)-benzoate]",–,–,–,–,–,11.32,15.39,–
CCCC[C@@H]1OC(=O)c2ccccc21 [S-NBP],–,–,–,–,–,25.95,33.24,–
"CC(=O)Oc1ccccc1C(=O)O [ASP, O-acetoxybenzoic acid]",–,–,–,–,–,39.67,40.74,22.52 ± 1.31
